In ChEMBL document CHEMBL1201862, “PubChem BioAssay data set” (2004):
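Protocol summary: plate cells (96-well), add compound at 5 concentrations, incubate 48 h, interpolate endpoints linearly. Here, GI50 denotes the concentration required for 50% inhibition of growth.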 Active and inactive are the calls of the source. Cut-off read from the data, not from the text of the source: active = GI50 up to about 1.1 µM and inactive = higher. Residues, ends and D or L forms follow the SMILES beside them. *: point of attachment. Boc = CC(C)(C)OC(=O)*; Bz = O=C(c1ccccc1)*

Assays:
Assay in all cases: growth of human tumour cells (NCI), 48 h
[1] = tested on: OVCAR-4
[2] = tested on: HCC 2998
[3] = tested on: EKVX
[4] = tested on: Hs-578T
[5] = tested on: A549
[6] = tested on: A498
[7] = tested on: ACHN
[8] = tested on: OVCAR-5
[9] = tested on: DU-145
[10] = tested on: HL-60
[11] = tested on: SK-OV-3
[12] = tested on: TK-10
[13] = tested on: SF-539
[14] = tested on: UACC-62
[15] = tested on: HOP-92
[16] = tested on: UACC-257
[17] = tested on: MCF7
[18] = tested on: KM12
[19] = tested on: PC-3
[20] = tested on: NCI-H226

Compound	GI50 [1]	GI50 [2]	GI50 [3]	GI50 [4]	GI50 [5]	GI50 [6]	GI50 [7]	GI50 [8]	GI50 [9]	GI50 [10]	GI50 [11]	GI50 [12]	GI50 [13]	GI50 [14]	GI50 [15]	GI50 [16]	GI50 [17]	GI50 [18]	GI50 [19]	GI50 [20]
CCN(CC)c1ccc(/C=C/c2ccnc3ccccc23)cc1	> 100 µM (inactive)	> 100 µM (inactive)	> 100 µM (inactive)	> 100 µM (inactive)	> 100 µM (inactive)	> 100 µM (inactive)	> 100 µM (inactive)	> 100 µM (inactive)	> 100 µM (inactive)	> 100 µM (inactive)	> 100 µM (inactive)	> 100 µM (inactive)	> 100 µM (inactive)	> 100 µM (inactive)	> 100 µM (inactive)	> 100 µM (inactive)	> 100 µM (inactive)	> 100 µM (inactive)	> 100 µM (inactive)	
NCCC1CN(C(=O)OCc2ccccc2)c2ccccc21 (stereo not given)	20.4 µM (inactive)	16.6 µM (inactive)	20.2 µM (inactive)	26.2 µM (inactive)	27.5 µM (inactive)	> 37.2 µM (inactive)	22.6 µM (inactive)	17.1 µM (inactive)	17.3 µM (inactive)		> 42.4 µM (inactive)	22.6 µM (inactive)	3.44 µM (inactive)	15.6 µM (inactive)	5.45 µM (inactive)	17.3 µM (inactive)	1.01 µM (active)	17.8 µM (inactive)	3.86 µM (inactive)	12 µM (inactive)
ON[C@H]1C[C@@H](n2cnc3c(NC4CC4)ncnc32)[C@H](O)[C@@H]1O	> 100 µM (inactive)	> 100 µM (inactive)	> 100 µM (inactive)	> 100 µM (inactive)	> 100 µM (inactive)	> 100 µM (inactive)	> 100 µM (inactive)	> 100 µM (inactive)	> 100 µM (inactive)		> 100 µM (inactive)	> 100 µM (inactive)	> 100 µM (inactive)	> 100 µM (inactive)	> 100 µM (inactive)	> 100 µM (inactive)	> 100 µM (inactive)	> 100 µM (inactive)	> 100 µM (inactive)	> 100 µM (inactive)
COc1ccc2c(c1)CC[C@@H]1[C@@H]2CC[C@]2(C)/C(=N/OCCN3CCCC3)CC[C@@H]12	12 µM (inactive)	1.85 µM (inactive)	4.57 µM (inactive)	2.65 µM (inactive)	2.78 µM (inactive)	3.8 µM (inactive)	4.45 µM (inactive)	2.79 µM (inactive)	3.94 µM (inactive)	1.21 µM (inactive)		6.47 µM (inactive)	1.9 µM (inactive)	1.82 µM (inactive)	2.49 µM (inactive)	1.75 µM (inactive)	3.03 µM (inactive)	2.42 µM (inactive)	3.85 µM (inactive)	1.95 µM (inactive)
CN(C)CCCNc1c2ccccc2nc2cccc([N+](=O)[O-])c12	< 0.001 µM (active)	< 0.001 µM (active)	0.00185 µM (active)	0.00288 µM (active)	< 0.001 µM (active)	< 0.001 µM (active)	< 0.001 µM (active)	0.00217 µM (active)	0.00257 µM (active)	0.00362 µM (active)	0.00367 µM (active)	0.00215 µM (active)	0.00197 µM (active)		< 0.001 µM (active)	0.00275 µM (active)	< 0.001 µM (active)	0.00117 µM (active)	< 0.001 µM (active)	0.0048 µM (active)
CC(=O)OCc1nc(C#N)c(N)o1	> 100 µM (inactive)	> 100 µM (inactive)	> 100 µM (inactive)	> 100 µM (inactive)		> 100 µM (inactive)	> 100 µM (inactive)	> 100 µM (inactive)	> 100 µM (inactive)	> 100 µM (inactive)	> 100 µM (inactive)	> 100 µM (inactive)		> 100 µM (inactive)	> 100 µM (inactive)	> 100 µM (inactive)	> 100 µM (inactive)	> 100 µM (inactive)	> 100 µM (inactive)	> 100 µM (inactive)
OCC1OC(NCCNCCNC2OC(CO)C(O)C(O)C2O)C(O)C(O)C1O (stereo not given)		> 100 µM (inactive)	> 100 µM (inactive)	> 100 µM (inactive)	> 100 µM (inactive)	> 100 µM (inactive)	> 100 µM (inactive)	> 100 µM (inactive)	> 100 µM (inactive)	> 100 µM (inactive)	> 100 µM (inactive)	> 100 µM (inactive)	> 100 µM (inactive)	> 100 µM (inactive)	> 100 µM (inactive)	> 100 µM (inactive)	> 100 µM (inactive)		> 100 µM (inactive)	> 100 µM (inactive)
COc1cc2c(cc1C1COc3cc4occc4cc3C1=O)OCO2 (stereo not given)	2.81 µM (inactive)	98.6 µM (inactive)	87.3 µM (inactive)	28.1 µM (inactive)	7.11 µM (inactive)	31.8 µM (inactive)	> 100 µM (inactive)	> 100 µM (inactive)	> 100 µM (inactive)		34.4 µM (inactive)	29.4 µM (inactive)	35.6 µM (inactive)	> 100 µM (inactive)	91 µM (inactive)	> 100 µM (inactive)	17.4 µM (inactive)	> 100 µM (inactive)	> 100 µM (inactive)	25.7 µM (inactive)
CC(C)(C)OC(=O)NC(Cc1ccc(O)cn1)C(N)=O (stereo not given)	> 100 µM (inactive)	> 100 µM (inactive)	> 100 µM (inactive)	> 100 µM (inactive)	> 100 µM (inactive)	> 100 µM (inactive)	> 100 µM (inactive)	> 100 µM (inactive)	> 100 µM (inactive)	> 100 µM (inactive)		> 100 µM (inactive)	> 100 µM (inactive)		> 100 µM (inactive)	> 100 µM (inactive)	> 100 µM (inactive)	> 100 µM (inactive)	> 100 µM (inactive)	> 100 µM (inactive)
COC1CC(C)(N)C(O)C(C)O1 (stereo not given)		> 100 µM (inactive)	> 100 µM (inactive)	> 100 µM (inactive)	> 100 µM (inactive)	> 100 µM (inactive)	> 100 µM (inactive)		> 100 µM (inactive)	> 100 µM (inactive)	> 100 µM (inactive)	> 100 µM (inactive)	> 100 µM (inactive)	> 100 µM (inactive)	> 100 µM (inactive)	> 100 µM (inactive)	> 100 µM (inactive)	> 100 µM (inactive)	> 100 µM (inactive)	> 100 µM (inactive)
CC(NC(=O)C(Cc1ccc(OC(=O)c2ccccc2)cc1)NC(=O)OC(C)(C)C)C(=O)NC(Cc1ccccc1)C(=O)NCC(N)=O (stereo not given) (Boc-Y(Bz)AFG-NH2; configuration not given here)	20.9 µM (inactive)	20.2 µM (inactive)		20.3 µM (inactive)	23.4 µM (inactive)	21.6 µM (inactive)	23 µM (inactive)	24.4 µM (inactive)	20.4 µM (inactive)	25.6 µM (inactive)	19.2 µM (inactive)	20.8 µM (inactive)	24.9 µM (inactive)	18.8 µM (inactive)	23.6 µM (inactive)	19.1 µM (inactive)	19.5 µM (inactive)	35.8 µM (inactive)	18 µM (inactive)	20.9 µM (inactive)
